One assay concerns C.albicans CCM 8186. The experiment in a line: MIC, broth microdilution. It counts as cell-based, Candida albicans. The settings on record: C.albicans CCM 8186, 24 h. From the text:
(§1) Escherichia coli (PCM 2057 = ATCC 25922), Staphylococcus aureus (PCM 2054 = ATCC 25923), Staphylococcus epidermidis (PCM 2118 = ATCC 14990), Bacillus subtilis (PCM 2224 = ATCC 9799), Bacillus cereus (PCM 482 = ATCC 10702) and Pseudomonas aeruginosa (PCM 499 = ATCC 10145) were obtained from the Polish Collection of Microorganisms. Fungi strains Candida albicans (CCM 8186 = CNTC 49/64), Candida glabrata (CCM 8270 = ATCC 90030), Candida parapsilosis (CCM 8260 = ATCC 22019) and Candida krusei (CCM 8271 = ATCC 6258) were acquired from the Czech Collection of Microorganisms. S. aureus USA300 (wild type strain), the reference strain of Klebsiella pneumoniae (ATCC 13883) and clinical isolates of Pseudomonas aeruginosa (PA1, PA2) collected from nonrelated patients admitted to the Stefan Zeromski Specialist Municipal Hospital in Krakow (Poland) were kindly provided by the research group of the Department of Microbiology, Faculty of Biochemistry, Biophysics and Biotechnology, Jagiellonian University, Krakow, Poland.
(§2) Luria-Bertani broth (LB) and Sabouraud Dextrose broth (SB) (Biocorp, Poland) were used for cultivation of bacteria and fungi strains, respectively. The antimicrobial activity of the peptides were analyzed through determination of MIC (minimal inhibitory concentration) parameters according to Clinical and Laboratory Standards (CLSI) guidelines developed for aerobic bacteria and yeasts, respectively. Mueller-Hinton broth (MHB) was used as the working medium for all bacterial strains, while in the case of fungi, RPMI-1640 (with L-glutamine, without sodium bicarbonate) growth medium buffered with MOPS (morpholinepropanesulfonic acid) and supplemented with 2% glucose was used. Inoculum was prepared from freshly grown cultures of microorganisms at their exponential phase of growth. […] Plates were then incubated for 24 h at 37 °C in the case of bacteria and at 35 °C in the case of fungi. After that time, absorbance was read at 590 nm with a Perkin Elmer plate reader. Cultures without peptide were treated as positive control, while uninoculated media were defined as negative control. All measurements were run at least in triplicate.
Background: In broth dilution the organism is exposed to a series of concentrations in liquid medium.

Another assay has as its system B. subtilis PCM 2224. The experiment in a line: MIC, broth microdilution. It counts as cell-based, Bacillus subtilis. The settings on record: B. subtilis PCM 2224, 24 h.
Excerpt: as §1, §2

A further assay relates to B. cereus PCM 482. The experiment in a line: MIC, broth microdilution. Format: cell-based, Bacillus cereus. Conditions: B. cereus PCM 482, 24 h.
Excerpt: as §1, §2

For the next assay, the system named is P. aeruginosa PCM 499. Briefly: MIC, broth microdilution. Conditions: P. aeruginosa PCM 499, 24 h. Format: cell-based, Pseudomonas aeruginosa.
Excerpt: as §1, §2

For assay [1], the system named is C. albicans (CCM 8186) biofilm. The experiment in a line: Biofilm inhibition assay (MTT). Format: cell-based, Candida albicans. Conditions: C. albicans biofilm development, 24 h post-inoculation. The method, then: In the case of bacteria, an overnight culture of S. aureus in Tryptic Soy Broth (TSB) supplemented with 2% glucose (TSB/+G) was used to prepare inoculum for the experiments. Briefly, 5 mL of 24 h culture was centrifuged at 5000× g, washed with sterile PBS and suspended in a fresh 2 × concentrated TSB/+G. In the case of yeasts, the overnight culture of C. albicans in Sabouraud dextrose broth (SB) was used for inoculum preparation. Similar to above, 5 mL of 24 h culture was centrifuged, washed with PBS and then suspended in sterile 2 × concentrated RPMI-1640 medium (with L-glutamine, without sodium bicarbonate) supplemented with 2% glucose (RPMI-1640/+G). In both cases, the cell concentration of the inoculum was about 1 × 10^7 cells per ml.
For the determination of the inhibitory concentration that reduced biofilm development by 50% (BIC50^, expressed in µg/mL), 100 µL inoculum in 2 × concentrated RPMI-1640/+G medium (in the case of C. albicans) or 2 x concentrated TSB/+G broth (in the case of S. aureus) was transferred to each well of 96-well plates containing 100 µL of serially diluted in water tested compounds. The final concentrations of the compounds were the same as those used in MIC determination studies. The 96-well plates were then incubated for 24 h at 37 °C and 35 °C in the case of bacteria and fungi, respectively. Viability of the microorganisms in the presence of the tested compounds was analyzed by means of MTT assay.
(§3) The reduction in biofilm viability was analyzed by means of MTT assay. Briefly, 20 μL of MTT solution (5 mg/mL in PBS) was added to prewashed wells with exchanged medium (180 μL of fresh medium) wells containing bacterial/yeast biofilms. Plates were then incubated in the dark for the next 3 h at 37 °C. After that time, the medium was replaced with 6 mM HCl in isopropanol and, when the reduced MTT was fully dissolved, the plates were read at 570 nm. Activity against fully developed 24 h old biofilm was described as biofilm eradication concentration (BEC50 expressed in µg/mL), which corresponded to the concentration of the compound able to reduce 50% of biofilm viability compared with the growth control.

Assay [2] concerns S. aureus (PCM 2054) biofilm. Briefly: Biofilm eradication assay, pre-formed 24 h old biofilm (MTT). Format: cell-based, Staphylococcus aureus. Conditions: S. aureus pre-formed 24 h old biofilm, 24 h treatment. As for the experimental part: Biofilm eradication activity of the synthesized compounds was analyzed against 24 h old biofilms of S. aureus and C. albicans. In the case of bacteria, an overnight culture of S. aureus in Tryptic Soy Broth (TSB) supplemented with 2% glucose (TSB/+G) was used to prepare inoculum for the experiments. Briefly, 5 mL of 24 h culture was centrifuged at 5000× g, washed with sterile PBS and suspended in a fresh TSB/+G. The bacterial suspension was then diluted in a fresh growth medium to obtain the final concentration of colonies of about 1 × 10^7 cells per ml. Further, 200 μL of the inoculum was transferred to each well of 96-well sterile polystyrene flat-bottomed plate, and bacteria were then incubated for the next 24 h without shaking at 37 °C.
(§4) After that, each well of the plates containing bacterial or fungi biofilm was washed three times with PBS in order to remove all non-adherent cells. Then, peptide solutions of 200 µL ranging from 50 to 0,39 µg/mL prepared in TSB +/G in the case of experiments on S. aureus biofilm, and (RPMI-1640/+G) in the case of C. alibcans, were prepared and transferred into the microtiter plates. After the addition of the peptides, the experiments were continued for the next 24 h.
as §3

The test system of assay [3] is C. albicans (CCM 8186) biofilm. The description is as above. The settings on record: C. albicans pre-formed 24 h old biofilm, 24 h treatment. It counts as cell-based, Candida albicans. As for the experimental part: In the case of yeasts, the overnight culture of C. albicans in Sabouraud dextrose broth (SB) was used for inoculum preparation. Similar to above, 5 mL of 24 h culture was centrifuged, washed with PBS and then suspended in sterile RPMI-1640 medium (with L-glutamine, without sodium bicarbonate) supplemented with 2% glucose (RPMI-1640/+G) yielding the amount of about 1 × 10^7 cells per ml. Subsequently, 200 µL of yeast suspension was transferred into each well of a microtiter plate, and it was incubated stationary for the next 24 h at 35 °C.
as §4, §3

Values after ≈ are worked out from the molar mass of the structure shown. Where a SMILES comes first, the peptide text is derived from it. [ ]: non-standard residue; d: D form. The star is where a group is joined. Palmitoyl = CCCCCCCCCCCCCCCC(=O)*; Pentanoyl = CCCCC(=O)*; AEEA = NCCOCCOCC(=O)O; βAla = NCCC(=O)O A value given as a limit tells only on which side of the number the result lay.

As to `CCCCCCCCCCCCCCCC(=O)NCCC(=O)N[C@@H](Cc1c[nH]cn1)C(=O)NCCOCCOCC(=O)N[C@H](C(=O)N[C@@H](CCCCN)C(=O)N[C@@H](CCCCN)C(=O)N[C@H](C(=O)N[C@@H](CC(C)C)C(=O)N[C@@H](CO)C(=O)N[C@@H](CCCCN)C(=O)N[C@H](C(=O)N[C@@H](CCCCN)C(=O)N[C@@H](CCCCN)C(=O)N[C@@H](CC(C)C)C(=O)N[C@@H](CC(C)C)C(N)=O)[C@@H](C)CC)[C@@H](C)CC)[C@@H](C)CC` [C16-CAR-PEG-DK5] ({Palmitoyl-βAla}-H[AEEA]IKKILSKIKKLL-NH2), the MIC100 in the assay with C.albicans CCM 8186 is 25 µg/mL (≈ 12.4 µM); in the assay with B. subtilis PCM 2224 it was 12.5 µg/mL (≈ 6.2 µM); against B. cereus PCM 482, >50 µg/mL; in the assay with P. aeruginosa PCM 499, >50 µg/mL. In assay [1], this compound came in with a BIC50 of 25 µg/mL. Further, the figures for the BEC50 in assay [2] and in assay [3] were 6.25 µg/mL and 15 µg/mL, respectively.

Turning to `CCCCCCCCCCCCCCCC(=O)N[C@H](C(=O)N[C@@H](CCCCN)C(=O)N[C@@H](CCCCN)C(=O)N[C@H](C(=O)N[C@@H](CC(C)C)C(=O)N[C@@H](CO)C(=O)N[C@@H](CCCCN)C(=O)N[C@H](C(=O)N[C@@H](CCCCN)C(=O)N[C@@H](CCCCN)C(=O)N[C@@H](CC(C)C)C(=O)N[C@@H](CC(C)C)C(N)=O)[C@@H](C)CC)[C@@H](C)CC)[C@@H](C)CC` [Compound C16-DK5] (Palmitoyl-IKKILSKIKKLL-NH2), the MIC100 with C.albicans CCM 8186 is listed as >50 µg/mL; against B. subtilis PCM 2224, 3.13 µg/mL (≈ 1.88 µM); in the assay on B. cereus PCM 482, >50 µg/mL; in the assay with P. aeruginosa PCM 499 it was >50 µg/mL. In addition, the BIC50 in assay [1] is >50 µg/mL. Moreover, the values for the BEC50 in assay [2] and in assay [3] were 6.25 µg/mL and 12.5 µg/mL, respectively.

On to `CCCCC(=O)NCCC(=O)N[C@@H](Cc1c[nH]cn1)C(=O)NCCOCCOCC(=O)N[C@H](C(=O)N[C@@H](CCCCN)C(=O)N[C@@H](CCCCN)C(=O)N[C@H](C(=O)N[C@@H](CC(C)C)C(=O)N[C@@H](CO)C(=O)N[C@@H](CCCCN)C(=O)N[C@H](C(=O)N[C@@H](CCCCN)C(=O)N[C@@H](CCCCN)C(=O)N[C@@H](CC(C)C)C(=O)N[C@@H](CC(C)C)C(N)=O)[C@@H](C)CC)[C@@H](C)CC)[C@@H](C)CC` [C5-CAR-PEG-DK5] ({Pentanoyl-βAla}-H[AEEA]IKKILSKIKKLL-NH2), for which the MIC100 against C.albicans CCM 8186 is >50 µg/mL; against B. subtilis PCM 2224 it was 6.25 µg/mL (≈ 3.36 µM); in the assay on B. cereus PCM 482, >50 µg/mL; against P. aeruginosa PCM 499 it was >50 µg/mL. Also, the BIC50 in assay [1] is listed as >50 µg/mL. The BEC50 in assay [2] is listed as >50 µg/mL; in assay [3], 20 µg/mL.
